Here are results for seven molecules from patent US20040142979A1, “Heteroarylsulfonylmethyl hydroxamic acids and amides and their use as protease inhibitors” (priority 2002, published 2004).

The target of one assay is T1, Human recombinant MMP-13 (Homo sapiens, UniProt P45452).
T1 construct: made in house; host or cells: baculovirus / insect cells
Briefly: In vitro MMP inhibition analysis (fluorogenic peptide substrate), MMP-13. The class given is biochemical. The following applies: human recombinant enzyme; 4 μM substrate (A); apparent Ki without substrate correction. The method, then: (§1) Several compounds and salts were analyzed in an in vitro assay to determine their ability to inhibit the MMP cleavage of peptide substrates. Inhibition constant (Ki) were calculated from the assayed compound-MMP interactions.
(§2) Human recombinant MMP-1, MMP-2, MMP-9, MMP-13, and MMP-14 were used in this assay. All enzymes were prepared in Assignee's laboratories following usual laboratory procedures. Protocols for the preparation and use of these enzymes are available in the scientific literature. See, e.g., Enzyme Nomenclature (Academic Press, San Diego, Calif., 1992) (and the citations therein). See also, Freije et al., J. Biol. Chem., 269(24), 16766-16773 (1994).
The MMP-13 was obtained as a proenzyme from a full-length cDNA clone using baculovirus, as described by V. A. Luckow, “Insect Cell Expression Technology,” Protein Engineering: Principles and Practice, pp. 183-218 (edited by J. L. Cleland et al., Wiley-Liss, Inc., 1996). The expressed proenzyme was first purified over a heparin agarose column, and then over a chelating zinc chloride column. The proenzyme was then activated by APMA for use in the assay. […] See also, O'Reilly et al, Baculovirus Expression Vectors: A Laboratory Manual (W. H. Freeman and Co., New York, N.Y., 1992). See also, King et al., The Baculovirus Expression System: A Laboratory Guide (Chapman & Hall, London, England, 1992).
(§3) All MMPs were activated using 4-aminophenylmercuric acetate (“APMA”, Sigma Chemical, St. Louis, Mo.) or trypsin. MMP-9 also was activated using human recombinant MMP-3 (purified in Assignee's laboratory following standard cloning and purification techniques).
(§4) The following fluorogenic, methoxycoumarin-containing polypeptide substrate (A) was used in the MMP inhibition assays:
(§5) MCA-ArgProLeuGlyLeuDpaAlaArgGluArgNH2 (A)
(§6) “MCA” is 7-methoxycoumarin-4-yl acetyl. Substrate (A) was prepared Assignee's laboratory. In the absence of MMP inhibitory activity, the substrate is cleaved at the Gly-Leu peptide bond. This cleavage separates the highly fluorogenic peptide from the 2,4-dinitrophenyl quencher, thus resulting in increase of fluorescent intensity.
(§7) The stock solutions of the assayed compounds and salts were prepared in 1% dimethyl sulfoxide (DMSO). These stock solutions were diluted in Buffer A (100 mM Tris-HCl, 100 mM NaCl, 10 mM CaCl2, 0.05% polyoxyethylene 23 lauryl ether, pH 7.5) to obtain solutions with different compound concentrations, i.e., assay solutions with different concentrations of the assayed MMP inhibitory compound. The experiment controls contained the same amount of Buffer A/DMSO as the assayed sample, but contained none of the tested compound or salt.
The assays from which the Ki determinations were made were performed as follows. The assayed compound samples were incubated in separate wells of untreated white polystyrene plates (Nunc Nalgene International, Rochester, N.Y.), and analyzed on a Tecan SpectraFlour Plus plate reader. The excitation wavelength was 330 nm, and the emission wavelength -420 nm. All samples (assayed compounds and controls) were incubated in separate plate wells at room temperature for 1 hr in the presence of 4 μM of MMP substrate (A). In the absence of MMP inhibitory activity, substrate (A) was cleaved at the Gly-Leu bond resulting in an increase of relative fluorescence. Inhibition was observed as a reduced rate of this increase in relative fluorescence. […] This protocol is a modification of method by Knight et al., FEBS Lett., 296(3), 263-266 (1992). Apparent inhibitory constants were determined by non-linear regression of reaction velocity as a function of inhibitor and enzyme concentration using Morrison's equation, as described by Kuzmic, P., et al., Anal. Biochem., 286(1):45-50 (2000). […] Since the substrate concentration was chosen to be at or below the Km, the apparent Ki's from this analysis were reported as Ki's without correction for the influence of substrate.
All Ki values in Table 3 are given in nM units.

The next assay deals with T2, Human recombinant MMP-9 (Homo sapiens, UniProt P14780).
T2 construct: made in house; host or cells: MMP-9-transfected HT1080 cells (spent media)
As to the kind of experiment: In vitro MMP inhibition analysis (fluorogenic peptide substrate), MMP-9. The class given is biochemical. As to conditions: human recombinant enzyme; 4 μM substrate (A); apparent Ki without substrate correction. The method, then: as §1, §2
The MMP-9 proenzyme was purified by gelatin Sepharose chromatography from spent media of MMP-9-transfected HT1080 cells provided by Dr. Howard Welgus of Washington University (St. Louis, Mo.).
as §3, §4, §5, §6, §7
The assays from which the Ki determinations were made were performed as follows. The assayed compound samples were incubated in separate wells of untreated white polystyrene plates (Nunc Nalgene International, Rochester, N.Y.), and analyzed on a Tecan SpectraFlour Plus plate reader. The excitation wavelength was 330 nm, and the emission wavelength -420 nm. All samples (assayed compounds and controls) were incubated in separate plate wells at room temperature for 1 hr in the presence of 4 μM of MMP substrate (A). In the absence of MMP inhibitory activity, substrate (A) was cleaved at the Gly-Leu bond resulting in an increase of relative fluorescence. Inhibition was observed as a reduced rate of this increase in relative fluorescence. […] This protocol is a modification of method by Knight et al., FEBS Lett., 296(3), 263-266 (1992). Apparent inhibitory constants were determined by non-linear regression of reaction velocity as a function of inhibitor and enzyme concentration using Morrison's equation, as described by Kuzmic, P., et al., Anal. Biochem., 286(1):45-50 (2000). Modifications were made in the non-linear regression method to allow a common control reaction rate and effective enzyme concentration to be shared between all dose-response relationships on a given assay plate. Since the substrate concentration was chosen to be at or below the Km, the apparent Ki's from this analysis were reported as Ki's without correction for the influence of substrate.
The above protocols were used to determine MMP inhibition Ki constants for the compounds in Examples 1, 2, and 4-42 above. All Ki values in Table 3 are given in nM units.

T2 sequence (P14780 107-707 limits assumed): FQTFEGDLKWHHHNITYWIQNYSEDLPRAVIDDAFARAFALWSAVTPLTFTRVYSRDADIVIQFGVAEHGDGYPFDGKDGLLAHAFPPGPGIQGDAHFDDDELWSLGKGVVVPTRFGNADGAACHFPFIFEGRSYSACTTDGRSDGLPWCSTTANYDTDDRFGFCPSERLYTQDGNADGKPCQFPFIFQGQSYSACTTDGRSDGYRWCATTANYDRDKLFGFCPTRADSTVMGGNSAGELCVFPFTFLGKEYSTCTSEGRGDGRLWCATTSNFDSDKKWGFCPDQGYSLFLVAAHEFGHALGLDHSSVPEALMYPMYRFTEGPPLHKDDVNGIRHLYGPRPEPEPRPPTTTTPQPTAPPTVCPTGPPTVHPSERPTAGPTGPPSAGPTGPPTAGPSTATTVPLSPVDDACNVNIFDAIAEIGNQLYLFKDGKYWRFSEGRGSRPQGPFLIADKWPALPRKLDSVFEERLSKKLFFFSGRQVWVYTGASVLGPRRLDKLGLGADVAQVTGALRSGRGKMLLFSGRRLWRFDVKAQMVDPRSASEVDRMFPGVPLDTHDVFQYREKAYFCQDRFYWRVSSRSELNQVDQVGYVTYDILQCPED

Consider `CCCCNC(=O)c1ccc(-c2ccc(S(=O)(=O)C3(C(=O)NO)CCOCC3)cn2)cc1` [Example 76], for which the Ki on Human recombinant MMP-13 came out at 5.59 nM; on Human recombinant MMP-9, 428 nM.

Consider `CN(C(=O)c1ccc(-c2ccc(S(=O)(=O)C3(C(=O)NO)CCOCC3)cn2)cc1)c1ccccc1` [Example 78], for which the values for the Ki on Human recombinant MMP-13 and on Human recombinant MMP-9 were 447 nM and 1290 nM, respectively.

As for `CCN(CC)C(=O)c1ccc(-c2ccc(S(=O)(=O)C3(C(=O)NO)CCOCC3)cn2)cc1` [Example 79], the Ki was 607 nM at Human recombinant MMP-13 and more than 10000 nM at Human recombinant MMP-9.

For the molecule `CN(C(=O)c1ccc(-c2ccc(S(=O)(=O)C3(C(=O)NO)CCOCC3)cn2)cc1)c1ccc(OC(F)(F)F)cc1` [Example 81], the Ki came to 264 nM at Human recombinant MMP-13 and 3400 nM on Human recombinant MMP-9.

For the molecule `CC(C)CN(C)C(=O)c1ccc(-c2ccc(S(=O)(=O)C3(C(=O)NO)CCOCC3)cn2)cc1` [Example 82], the Ki on Human recombinant MMP-13 was determined as 229 nM; on Human recombinant MMP-9, 894 nM.

Take `O=C(NO)C1(S(=O)(=O)c2ccc3c(c2)sc2nc(-c4ccccc4)cn23)CCOCC1` [Example 83]: the figures for the Ki at Human recombinant MMP-13 and on Human recombinant MMP-9 were 577 nM and 2040 nM, respectively.

As to `O=C(NO)C1(S(=O)(=O)c2ccc(-c3ccc(OC(F)(F)F)cc3)nc2)CCOCC1` [Example 84], the Ki on Human recombinant MMP-13 came to 0.79 nM; on Human recombinant MMP-9 it was 4.26 nM.
